Holding throughout (type): in vivo
The test system of data set [1] is silicosis model mice. Nature of the data set: Inflammation scoring (H&E staining, Szapiel's criteria) in lung tissue of silicosis model mice. To be noted: oral gavage, 28 days, score 0 to 3, model group 2.22 ± 0.28. The procedure:
(§1) After acclimatization, 6-8-week-old male C57BL/6J mice were intratracheally instilled 40 μL of SiO2 suspension (600 mg/kg) on Day 1 (D1) to establish the silicosis model. On the same day (D1), the animals were randomly divided into 3 groups based on body weight and administered either the vehicle (model group) or Compound 007 (100 mg/kg or 150 mg/kg, once daily) via oral gavage for 28 consecutive days. A normal control group was also established, intratracheally instilled 40 μL of saline on D1 and orally administered sterile water.
Lung tissues from all mice were collected, sectioned, and subjected to Masson's Trichrome staining and H&E staining for silicotic nodule scoring and inflammation scoring. Silicotic nodule scoring was performed using the King's five-point scale [Zhujie Cao, et al., Acta Pharmacologica Sinica, 2021], where the severity of silicotic nodules in lung tissue was scored from 0 to 5, with higher scores indicating more severe nodulation. […]

The test system of data set [2] is silicosis model mice. Nature of the data set: Silicotic nodule scoring (Masson's Trichrome staining, King's five-point scale) in lung of silicosis model mice. To be noted: 28 days; for silica-induced nodule formation and collagen fiber deposition: oral, Masson's Trichrome staining; for Silicotic Nodule Score (Mean ± SEM): oral gavage, score 0 to 5, model group 1.08 ± 0.27. How it is done: as §1
Lung tissues from all mice were collected, sectioned, and subjected to Masson's Trichrome staining and H&E staining for silicotic nodule scoring and inflammation scoring. Silicotic nodule scoring was performed using the King's five-point scale [Zhujie Cao, et al., Acta Pharmacologica Sinica, 2021], where the severity of silicotic nodules in lung tissue was scored from 0 to 5, with higher scores indicating more severe nodulation. H&E pathological scoring followed Szapiel's inflammation scoring criteria, where the degree of inflammatory cell infiltration in lung tissue was scored from 0 to 3, with higher scores indicating greater inflammation in the lung tissue (0: no inflammation or alveolitis: 1: mild, mononuclear cell infiltration with thickened alveolar septa, localized involvement, pleural lesions involving less than 20% of the lung, and well-preserved alveolar structure; 2: moderate, more extensive alveolitis involving 20%-50% of the lung, primarily pleural lesions; 3: severe, diffuse alveolitis involving over 50% of the lung, occasionally with mononuclear cell infiltration in the alveoli and interstitium and/or some hemorrhagic areas within the alveoli).

In another data set the test system is TGF-β. The experiment in a line: TGF-β detection in BALF of silicosis model mice. To be noted: oral, 28 days, vs model group. How it is done: as §1
After the administration was completed, the animals were euthanized, and bronchoalveolar lavage fluid (BALF) was collected from randomly selected animals in each group for TGF-β detection.

The test system of data set [3] is silicosis model mice. The experiment in a line: Pulmonary function indices in SiO2-induced silicosis model mice. To be noted: oral, 28 days, 2 h after final administration, vs model group. The procedure:
as §1
Two hours after the final administration, mouse pulmonary function indices were measured.

The test system of data set [4] is silicosis model mice. Nature of the data set: Mortality during 28-day dosing in silicosis model mice. To be noted: 100 mg/kg or 150 mg/kg once daily, oral gavage, 28 consecutive days. The procedure: as §1

Regarding `Cn1c(C(=O)N2CC(F)(F)C2)cc2ccc(-c3nccc(Nc4ccc(-c5cn[nH]c5)cc4)n3)cc21` [Compound 007], the “Inflammation Score (Mean ± SEM)” value was 1.22 ± 0.15 in the data set with silicosis model mice [1] (100 mg/kg once daily) and 1.22 ± 0.22 with silicosis model mice [1] (150 mg/kg once daily). In addition, the “silica-induced nodule formation and collagen fiber deposition” value in the data set on silicosis model mice [2] (100 mg/kg daily) and in the data set with silicosis model mice [2] (150 mg/kg daily) was “reduced” in each case. Besides, the “Silicotic Nodule Score (Mean ± SEM)” value is 0.32 ± 0.06 in the data set with silicosis model mice [2] (100 mg/kg once daily) and 0.35 ± 0.09 in the data set on silicosis model mice [2] (150 mg/kg once daily). The “TGF-β levels in BALF” value in the data set with TGF-β (100 mg/kg daily, p<0.001) is recorded as “significantly reduced”; in the data set on TGF-β (150 mg/kg daily, p<0.0001) it was “significantly reduced”. The inspiratory capacity entry with silicosis model mice [3] (100 mg/kg daily, p<0.05) was “significantly increased”; in the data set on silicosis model mice [3] (150 mg/kg daily, p<0.01), “significantly increased”. In addition, the respiratory system elastance entry was “decreased” with silicosis model mice [3] (100 mg/kg daily, p<0.05) and “decreased” in the data set with silicosis model mice [3] (150 mg/kg daily, p<0.05). For the same compound, the respiratory system resistance entry is “reduced” with silicosis model mice [3] (100 mg/kg daily, p<0.05) and “reduced” in the data set with silicosis model mice [3] (150 mg/kg daily, p<0.05). In addition, the “mortality during the dosing period” value with silicosis model mice [4] was “No mortality was observed”.

Source of the values: patent US20260137682A1, “METHOD FOR TREATING PNEUMOCONIOSIS” (Beijing Tide Pharmaceuticals Co., Ltd., priority 2022, published 2026).
